# System: HIV-1 infected PBMCs
# Assay: p24 antigen production by HIV-1 infected PBMCs
# Type: cell-based
# Settings: identical culture conditions, various doses
# Description: The efficacy of magnetic nanoparticle-AZTTP was evaluated in an in vitro model system using HIV infected peripheral blood mononuclear cells (PBMCs). […] Therefore, binding of AZTTP to magnetic nanoparticles have no effect on its biological activity.
structure (smiles),measurement,value
"Cc1cn([C@H]2C[C@H](N=[N+]=[N-])[C@@H](COP(=O)(O)OP(=O)(O)OP(=O)(O)O)O2)c(=O)[nH]c1=O [free AZTTP, 3′-Azido-3′-Deoxythymidine-5′-triphosphate]",anti-HIV activity of free AZTTP (positive control) and MP-AZTTP compared,similar

# — patent US20110213193A1, “Magnetic Nanodelivery of Therapeutic Agents Across the Blood Brain Barrier” (THE FLORIDA INTERNATIONAL UNIVERSITY BOARD OF TRUSTEES, priority 2008, published 2011)
